Species: Mus musculus
Assay: Inhibition of nitric oxide production in LPS-activated mouse macrophages at a concentration of 3 uM
Format: functional

Row | SMILES | inhibition at 3 µM [%]
1 | CC(C)[C@]12CC[C@](C)(O1)C1CC[C@](C)(S(=O)(=O)O)C1[C@@H]2O (some centres not stated) | -2.1
2 | CC(=O)O[C@@H](C[C@@H](C)C1=C2C=CC3[C@@]4(C)CCC(=O)C(C)(C)C4CC[C@]3(C)[C@@]2(C)CC1=O)[C@H]1OC1(C)C (some centres not stated) | 27.9
3 | CC(=O)O[C@@H](C[C@@H](C)[C@]12O[C@H]1C[C@@]1(C)C2=CC(=O)C2[C@@]3(C)CCC(=O)C(C)(C)C3CC[C@@]21C)[C@H]1OC1(C)C (some centres not stated) | 11.9
4 | CC(=O)O[C@@H](C[C@@H](C)C(=O)CC[C@@]1(C)C(=O)C=CC2[C@@]3(C)CCC(=O)C(C)(C)C3CC[C@@]21C)[C@H]1OC1(C)C (some centres not stated) | 10.2
5 | CC(=O)O[C@@H](C[C@@H](C)C1=C2C[C@H](O)C3[C@@]4(C)CCC(=O)C(C)(C)C4CC[C@]3(C)[C@@]2(C)CC1)[C@H]1OC1(C)C (some centres not stated) | 13.4
6 | CC(C)C1=CC2C(CC[C@]2(C)O)[C@@](O)(CO)CC1 (some centres not stated) | -3.1
7 | CC(=O)O[C@@H](C[C@@H](C)C1=C2[C@H](O)[C@H](O)C3[C@@]4(C)CCC(=O)C(C)(C)C4CC[C@]3(C)[C@@]2(C)CC1=O)[C@H]1OC1(C)C (some centres not stated) | 29.7

Species: Mus musculus
Assay: Concentration required for inhibition of nitric oxide production in LPS-activated mouse macrophages
Format: functional

Row | SMILES | IC50 [µM]
8 | CC(C)[C@]12CC[C@](C)(O1)C1CC[C@](C)(S(=O)(=O)O)C1[C@@H]2O (some centres not stated) | > 100
9 | CC(=O)O[C@@H](C[C@@H](C)C1=C2C=CC3[C@@]4(C)CCC(=O)C(C)(C)C4CC[C@]3(C)[C@@]2(C)CC1=O)[C@H]1OC1(C)C (some centres not stated) | 8.4
10 | CC(=O)O[C@@H](C[C@@H](C)[C@]12O[C@H]1C[C@@]1(C)C2=CC(=O)C2[C@@]3(C)CCC(=O)C(C)(C)C3CC[C@@]21C)[C@H]1OC1(C)C (some centres not stated) | > 10
11 | CC(=O)O[C@@H](C[C@@H](C)C(=O)CC[C@@]1(C)C(=O)C=CC2[C@@]3(C)CCC(=O)C(C)(C)C3CC[C@@]21C)[C@H]1OC1(C)C (some centres not stated) | 23
12 | CC(=O)O[C@@H](C[C@@H](C)C1=C2C[C@H](O)C3[C@@]4(C)CCC(=O)C(C)(C)C4CC[C@]3(C)[C@@]2(C)CC1)[C@H]1OC1(C)C (some centres not stated) | > 10
13 | CC(C)C1=CC2C(CC[C@]2(C)O)[C@@](O)(CO)CC1 (some centres not stated) | 68
14 | CC(=O)O[C@@H](C[C@@H](C)C1=C2[C@H](O)[C@H](O)C3[C@@]4(C)CCC(=O)C(C)(C)C4CC[C@]3(C)[C@@]2(C)CC1=O)[C@H]1OC1(C)C (some centres not stated) | 9.3

Species: Mus musculus
Assay: Inhibition of nitric oxide production in LPS-activated mouse macrophages at a concentration of 100 uM
Format: functional

Row | SMILES | inhibition at 100 µM [%]
15 | CC(C)[C@]12CC[C@](C)(O1)C1CC[C@](C)(S(=O)(=O)O)C1[C@@H]2O (some centres not stated) | 24.7
16 | CC(=O)O[C@@H](C[C@@H](C)C1=C2C=CC3[C@@]4(C)CCC(=O)C(C)(C)C4CC[C@]3(C)[C@@]2(C)CC1=O)[C@H]1OC1(C)C (some centres not stated) | 104
17 | CC(=O)O[C@@H](C[C@@H](C)[C@]12O[C@H]1C[C@@]1(C)C2=CC(=O)C2[C@@]3(C)CCC(=O)C(C)(C)C3CC[C@@]21C)[C@H]1OC1(C)C (some centres not stated) | 114
18 | CC(=O)O[C@@H](C[C@@H](C)C(=O)CC[C@@]1(C)C(=O)C=CC2[C@@]3(C)CCC(=O)C(C)(C)C3CC[C@@]21C)[C@H]1OC1(C)C (some centres not stated) | 114
19 | CC(=O)O[C@@H](C[C@@H](C)C1=C2C[C@H](O)C3[C@@]4(C)CCC(=O)C(C)(C)C4CC[C@]3(C)[C@@]2(C)CC1)[C@H]1OC1(C)C (some centres not stated) | 105
20 | CC(C)C1=CC2C(CC[C@]2(C)O)[C@@](O)(CO)CC1 (some centres not stated) | 64.1
21 | CC(=O)O[C@@H](C[C@@H](C)C1=C2[C@H](O)[C@H](O)C3[C@@]4(C)CCC(=O)C(C)(C)C4CC[C@]3(C)[C@@]2(C)CC1=O)[C@H]1OC1(C)C (some centres not stated) | 104

Species: Mus musculus
Assay: Inhibition of nitric oxide production in LPS-activated mouse macrophages at a concentration of 30 uM
Format: functional

Row | SMILES | inhibition at 30 µM [%]
22 | CC(C)[C@]12CC[C@](C)(O1)C1CC[C@](C)(S(=O)(=O)O)C1[C@@H]2O (some centres not stated) | 12.6
23 | CC(=O)O[C@@H](C[C@@H](C)C1=C2C=CC3[C@@]4(C)CCC(=O)C(C)(C)C4CC[C@]3(C)[C@@]2(C)CC1=O)[C@H]1OC1(C)C (some centres not stated) | 86.5
24 | CC(=O)O[C@@H](C[C@@H](C)[C@]12O[C@H]1C[C@@]1(C)C2=CC(=O)C2[C@@]3(C)CCC(=O)C(C)(C)C3CC[C@@]21C)[C@H]1OC1(C)C (some centres not stated) | 83.6
25 | CC(=O)O[C@@H](C[C@@H](C)C(=O)CC[C@@]1(C)C(=O)C=CC2[C@@]3(C)CCC(=O)C(C)(C)C3CC[C@@]21C)[C@H]1OC1(C)C (some centres not stated) | 61
26 | CC(=O)O[C@@H](C[C@@H](C)C1=C2C[C@H](O)C3[C@@]4(C)CCC(=O)C(C)(C)C4CC[C@]3(C)[C@@]2(C)CC1)[C@H]1OC1(C)C (some centres not stated) | 106
27 | CC(C)C1=CC2C(CC[C@]2(C)O)[C@@](O)(CO)CC1 (some centres not stated) | 21.2
28 | CC(=O)O[C@@H](C[C@@H](C)C1=C2[C@H](O)[C@H](O)C3[C@@]4(C)CCC(=O)C(C)(C)C4CC[C@]3(C)[C@@]2(C)CC1=O)[C@H]1OC1(C)C (some centres not stated) | 86.3

Species: Mus musculus
Assay: Inhibition of nitric oxide production in LPS-activated mouse macrophages at a concentration of 10 uM
Format: functional

Row | SMILES | inhibition at 10 µM [%]
29 | CC(C)[C@]12CC[C@](C)(O1)C1CC[C@](C)(S(=O)(=O)O)C1[C@@H]2O (some centres not stated) | 4.3
30 | CC(=O)O[C@@H](C[C@@H](C)C1=C2C=CC3[C@@]4(C)CCC(=O)C(C)(C)C4CC[C@]3(C)[C@@]2(C)CC1=O)[C@H]1OC1(C)C (some centres not stated) | 54.8
31 | CC(=O)O[C@@H](C[C@@H](C)[C@]12O[C@H]1C[C@@]1(C)C2=CC(=O)C2[C@@]3(C)CCC(=O)C(C)(C)C3CC[C@@]21C)[C@H]1OC1(C)C (some centres not stated) | 31.1
32 | CC(=O)O[C@@H](C[C@@H](C)C(=O)CC[C@@]1(C)C(=O)C=CC2[C@@]3(C)CCC(=O)C(C)(C)C3CC[C@@]21C)[C@H]1OC1(C)C (some centres not stated) | 22.7
33 | CC(=O)O[C@@H](C[C@@H](C)C1=C2C[C@H](O)C3[C@@]4(C)CCC(=O)C(C)(C)C4CC[C@]3(C)[C@@]2(C)CC1)[C@H]1OC1(C)C (some centres not stated) | 29.7
34 | CC(C)C1=CC2C(CC[C@]2(C)O)[C@@](O)(CO)CC1 (some centres not stated) | 4.8
35 | CC(=O)O[C@@H](C[C@@H](C)C1=C2[C@H](O)[C@H](O)C3[C@@]4(C)CCC(=O)C(C)(C)C4CC[C@]3(C)[C@@]2(C)CC1=O)[C@H]1OC1(C)C (some centres not stated) | 50.8

Species: Mus musculus
Assay: Inhibition of nitric oxide production in LPS-activated mouse macrophages at a concentration of 1 uM
Format: functional

Row | SMILES | inhibition at 1 µM [%]
36 | CC(C)[C@]12CC[C@](C)(O1)C1CC[C@](C)(S(=O)(=O)O)C1[C@@H]2O (some centres not stated) | 3.3
37 | CC(=O)O[C@@H](C[C@@H](C)C1=C2C=CC3[C@@]4(C)CCC(=O)C(C)(C)C4CC[C@]3(C)[C@@]2(C)CC1=O)[C@H]1OC1(C)C (some centres not stated) | 17.8
38 | CC(=O)O[C@@H](C[C@@H](C)[C@]12O[C@H]1C[C@@]1(C)C2=CC(=O)C2[C@@]3(C)CCC(=O)C(C)(C)C3CC[C@@]21C)[C@H]1OC1(C)C (some centres not stated) | 9.9
39 | CC(=O)O[C@@H](C[C@@H](C)C(=O)CC[C@@]1(C)C(=O)C=CC2[C@@]3(C)CCC(=O)C(C)(C)C3CC[C@@]21C)[C@H]1OC1(C)C (some centres not stated) | 2.9
40 | CC(=O)O[C@@H](C[C@@H](C)C1=C2C[C@H](O)C3[C@@]4(C)CCC(=O)C(C)(C)C4CC[C@]3(C)[C@@]2(C)CC1)[C@H]1OC1(C)C (some centres not stated) | 0
41 | CC(C)C1=CC2C(CC[C@]2(C)O)[C@@](O)(CO)CC1 (some centres not stated) | -4.3
42 | CC(=O)O[C@@H](C[C@@H](C)C1=C2[C@H](O)[C@H](O)C3[C@@]4(C)CCC(=O)C(C)(C)C4CC[C@]3(C)[C@@]2(C)CC1=O)[C@H]1OC1(C)C (some centres not stated) | 19
